Laboratory results as given in patent publication US9393288B2, “Methods of treating diseases associated with PPARγ” (The University of Vermont and State Agricultural College, priority 2012, dated 2016).

Assays:
[1] = tested on: parenchymal arterioles (PA); assay: SKCa/IKCa channel blockers added to isolated pressurized PA; parameters: species or system rat; conditions: apamin 3×10^−7 M, TRAM-34 10^−6 M in the bath
Description: (§1) Vascular Reactivity and Structural Characteristics in PA and MCA: For the first set of experiments, PA and MCA were equilibrated for 1 hour at 25 mmHg, after which myogenic activity was determined by stepwise increases in pressure from 40 to 100 mmHg for PA or 50 to 175 mmHg for MCA. ID and WT were measured at each pressure once stable. Changes in ID and WT were measured in PA only in response to small- (SKCa) and intermediate- (IKCa) conductance calcium-activated potassium channels blockers, apamin (3×10^−7 M) and TRAM-34 (10^−6 M), respectively. PA are unique in that the contribution of endothelium-derived hyperpolarizing factors (EDHF) to tone is greater than most vessels Cipolla et al. (2009) Stroke 40, 1451-1457. Thus, inhibition of SKCa/IKCa channels, a critical component in the EDHF pathway, causes constriction in PA Cipolla et al. (2009) Stroke 40, 1451-1457. We therefore assessed the effect of relaxin on constriction of PA in response to SKCa/IKCa channel inhibition in order to assess this unique pathway. To obtain structural measurements, ID and WT were recorded at pressures between 5 to 200 mmHg for PA or 5 to 175 mmHg for MCA after papaverine (10^−4 M) and diltiazem (10^−5 M) were added to the bath. For the second set of experiments in which animals were treated with relaxin+GW9662, passive structural measurements were made as described above.

PPARγ target genes = assay: PPARγ target gene expression (real-time qPCR) in adipose tissue, pial arteries and PA, NP Sprague Dawley rats; type: in vivo, rat; conditions: GW9662 co-treatment
Text: (§2) Animals and Treatment Groups: All procedures were approved by the Institutional Animal Care and Use Committee and conducted in accordance with the National Institutes of Health Guide for the Care and Use of Laboratory Animals. Female virgin NP Sprague Dawley rats (250-300 g, 14-16 weeks, Charles River, Canada) were used for all experiments and housed in the University of Vermont Animal Care Facility. Animals were randomly selected and grouped as untreated (N=4), treated with recombinant human relaxin-2 (relaxin, 4 μg/hr; N=14), relaxin plus a specific PPARγ inhibitor GW9662 (10 mg/kg daily in food; N=8), or vehicle (20 mM sodium acetate; N=14) for 10 days through osmotic minipumps (Alzet 2ML2, Durect Corp., Cupertino, Calif., USA). GW9662 treatment was started 1 day before and for the duration of relaxin treatment to ensure PPARγ was inhibited. Animals were anesthetized with 3% isoflurane and minipumps implanted subcutaneously in the back of the neck. All animals received post-surgical analgesic (buprenorphine, 50 μg/kg, s.c.). Relaxin infusion was continuous for 10 days until animals were euthanized for vessel experiments and tissue collection. The minipumps used were capable of delivering relaxin for 14 days and thus tissue collection was within this duration.
Determination of RXFP1 and PPARγ Target Gene Expression: MCA and PA from 4 untreated rats were collected to determine expression level of RXFP1, the primary relaxin receptor, using real-time qPCR methods. We also collected adipose tissue, pial arteries, and PA from vehicle, relaxin and relaxin+GW9662 groups (n=6 for each group) for determination of PPARγ target gene expression. All collected samples were stored in RNase inhibitor (1 unit/μl, RiboLock, Fermentas, Glen Burnie, Md., USA) at −80° C. for comparing expression of fatty acid translocase (FAT)/CD36 and liver X receptors-α (LXRα) for adipose tissue, and plasminogen activator inhibitor-1 (PAI-1) for vasculature. Standard techniques for real-time qPCR were performed by the Vermont Cancer Center DNA analysis facility at the University of Vermont, as described previously Cipolla et al. (2009) Stroke 40, 1451-1457. Briefly, RNA was extracted from tissues and concentration and integrity was determined by a NanoDrop ND-1000 Spectrophotometer (Wilmington, Del.) and an Agilent 2100 Bioanalyzer (Santa Clara, Calif., USA), respectively. Samples with low RNA quality were excluded. cDNA was then made by a SuperScript III Kit (Invitrogen, Carlsbad, Calif., USA). Real-time qPCR was set up as follows: 10 μL Universal PCR Master Mix (Applied Biosystems, Foster City, Calif., USA), 1 μL Assay on Demand (Applied Biosystems), 8 μL water, and 1 μL cDNA. β2-microglobulin (B2M, housekeeping control) and target genes were assessed using Assays on Demand from Applied Biosystems. […] Primers were designed across an exon-exon junction to avoid detecting genomic DNA. Thus, no DNase treatment of samples was necessary. All samples were run in duplicates using a 7900HT Sequence Detection System (Applied Biosystems). […]
Data Calculations and Statistical Analysis: Percent tone was calculated as percent decrease in ID from the passive diameter at each intravascular pressure: [1−(IDactive/IDpassive)]×100%. Outer diameter (OD) was calculated from measured ID and WT: ID+2WT. Cross-sectional area (CSA) of the wall was calculated as: [(OD/2)2−(ID/2)2]×π. Data from qPCR study were analyzed using the −2^ΔΔCT method, as described previously Livak et al. (2001) Methods 25, 402-408. […]

[2] = tested on: parenchymal arterioles (PA); assay: Pressurized arteriograph: vascular reactivity and structure of PA from relaxin-treated NP Sprague Dawley rats; type: in vivo, rat; conditions: GW9662 10 mg/kg daily in food during relaxin infusion, 5 mmHg
Text: as §2
Vessel Preparation and Pressurized Arteriograph System: After collecting trunk blood, the brain was quickly removed and placed in cold physiological salt solution (PSS). In the first set of experiments, PA between the M1 and M2 region of the MCA territory and the MCA from the same animals were carefully isolated from vehicle- or relaxin-treated animals and mounted on glass cannulas in a dual-chambered arteriograph such that one PA and one MCA from each animal were studied simultaneously. PA were identified as branches off the MCA that penetrated into the brain tissue, as previously described (25). In the second set of experiments, PA from the same brain region as above were dissected from relaxin+GW9662-treated animal and compared to PA from vehicle- and relaxin-treated animals. MCA were not studied in this second set of animals because there was no effect of relaxin on that segment of the vasculature. The proximal cannulas were connected to an in-line pressure transducer and a servo-null pressure control system (Living Systems Instrumentation, Burlington, Vt., USA) that allowed intravascular pressure to be maintained at a set pressure or changed at a variable rate. The distal cannulas were closed during the experiment to avoid flow-mediated responses. Temperature and pH were continuously measured and maintained at 37.0±0.5° C. and 7.40±0.05, respectively. Measurements of inner diameter (ID) and wall thickness (WT) were made via video microscopy (Living Systems Instrumentation).
as §1, with “To obtain structural measurements, ID and WT were recorded at pressures between 5 to 200 mmHg for PA or 5 to 175 mmHg for MCA after papaverine (10^−4 M) and diltiazem (10^−5 M) were added to the bath. For the second set of experiments in which animals were treated with relaxin+GW9662, passive structural measurements were made as described above.” left out

[3] = tested on: parenchymal arterioles (PA); assay: Pressurized arteriograph: vascular reactivity and structure of PA from female SHR; type: in vivo, rat; conditions: SHR-F-Rln-Axi vs SHR-F-Rln
Description: A separate group of SHR-F was used to determine if relaxin crosses the BBB by treating with relaxin (4 μg/hr) for 14 days and measuring relaxin concentration in cerebrospinal fluid (CSF) and serum (SHR-F-Rln-CSF, n=4). For the osmotic pump implant, animals were anesthetized with 3% isoflurane and minipumps implanted subcutaneously in the back of the neck. All animals received post-surgical analgesia (buprenorphine, 50 μg/kg, s.c.). Relaxin infusion was continuous for 14 days until animals were euthanized for isolated vessel experiments and tissue collection.
After collecting trunk blood, the brain was quickly removed and placed in cold physiological salt solution (PSS). PA between the M1 and M2 region of the MCA territory and the MCA from the same animals were carefully isolated from WKY-F, SHR-F, and SHR-F-Rln groups and mounted on glass cannulas. PA were identified as branches off the MCA that penetrated into the brain tissue, as previously described (han, S. L., and Cipolla, M. J. (2011) Relaxin causes selective outward remodeling of brain parenchymal arterioles via activation of peroxisome proliferator-activated receptor-gamma. FASEB J 25, 3229-3239). […] The proximal cannula was connected to an in-line pressure transducer and a servo-null pressure control system (Living Systems Instrumentation, Burlington, Vt., USA) that allowed intravascular pressure to be maintained at a set pressure or changed at a variable rate. The distal cannula was closed during the experiment to avoid flow-mediated responses. Temperature and pH were continuously measured and maintained at 37.0±0.5° C. and 7.40±0.05, respectively. Measurements of inner diameter (ID) and wall thickness (WT) were made via video microscopy (Living Systems Instrumentation, Burlington, Vt.).
PA and MCA were equilibrated for 1 hour, after which myogenic activity was determined by stepwise increases in pressure from 40 to 100 mmHg for PA or 50 to 175 mmHg for MCA. ID and WT were measured at each pressure once stable. Endothelium-dependent dilation was studied by adding NS309 (10^−8-10^−5 M), an activator of small- and intermediate-conductance calcium-activated potassium channels (SKCa, IKCa). NS309 was washed out of the bath and a single concentration of the nitric oxide synthase (NOS) inhibitor L-nitro-n-arginine (L-NNA, 10^−4 M) added to the bath. Constriction to NOS inhibition was used as an additional indicator of endothelial function. In the presence of L-NNA, sodium nitroprusside (SNP, 10^−8-10^−5 M) was added to the bath to assess endothelium-independent vasodilation. To obtain structural measurements, ID and WT were recorded at pressures between 5 to 200 mmHg for PA or 5 to 175 mmHg for MCA in zero-calcium PSS containing ethylene glycol tetra-acetic acid (EGTA) and outer diameter (OD) and distensibility calculated.
Percent tone was calculated as percent decrease in ID from the passive diameter at each intravascular pressure: [1−(IDactive/IDpassive)]×100. Percent reactivity for vasodilators was calculated as ((IDdose−IDstart)/(IDpassive−IDstart))×100. Percent constriction for vasoconstrictor was calculated as (1−(IDdose/IDstart))×100. OD was calculated from measured ID and WT: ID+2WT. Distensibility at a given pressure was calculated as (IDpassive−IDoriginal)/(IDoriginal)×100, where IDoriginal is defined as passive inner diameter determined at lowest pressure (5 mmHg). Data from qPCR study were analyzed using the −2^ΔΔCT method, as described previously (Livak, K. J., and Schmittgen, T. D. (2001) Analysis of relative gene expression data using real-time quantitative PCR and the 2(−Delta Delta C(T)) Method. Methods 25, 402-408). Data were removed when the Ct values of technical replicates differed by more than 0.5.

Question: For `Clc1ccccc1C(c1ccccc1)(c1ccccc1)n1cccn1` [TRAM-34], which “Vasoconstriction of PA” value [1] is on record?
Answer: The value was “greater vasoconstriction”.

Question: How did the “Relaxin-induced change of CD36 gene expression in adipose tissue” value (PPARγ target genes) turn out when `O=C(Nc1ccccc1)c1cc([N+](=O)[O-])ccc1Cl` [GW9662, reference compound] was run?
Answer: The value was “normalized”.

Question: What about the “Structural changes of PA induced by relaxin” value [2] of the same compound?
Answer: The value was “prevented”.

Question: How did the “Relaxin-induced increased distensibility of PA” value [3] turn out when `CNC(=O)c1ccccc1Sc1ccc2c(/C=C/c3ccccn3)n[nH]c2c1` [axitinib, reference compound] was run?
Answer: The value was “no effect”.
